In patent US20070134349A1, “Methods of treating hematological malignancies” (DUKE UNIVERSITY, priority 2005, published 2007):

Tests used:
NB4 cells [1] = assay: Differentiation markers CD11c/CD11b by flow cytometry in NB4 cells; format: cell-based; conditions: for NB4 differentiation: FIG. 10; for NB4 cell differentiation (CD11c): 21 h
Method: (§1) NB4 cells were provided by Dr. Ronald Evans (Salk Institute, La Jolla, Calif.). NB4-R4 cells were provided by Dr. Wilson Miller (McGill University, Montreal, Canada). HL-60, U-937, and Kasumi-1 cells were obtained from the American Type Culture Collection (Rockville, Md.). NB4 and NB4-R4 cells were grown in RPMI medium 1640 containing 10% fetal bovine serum. U-937 cells were grown in RPMI medium 1640 containing 10 mM HEPES, 1 mM sodium pyruvate, 4.5 g/L glucose, and 10% fetal bovine serum. HL-60 cells were grown in Iscove's Modified Dulbecco's medium containing 20% fetal bovine serum. Kasumi-1 cells were grown in RPMI medium 1640 containing 10 mM HEPES, 1 mM sodium pyruvate, 4.5 g/L glucose, and 20% fetal bovine serum.
(§2) To determine the percentage of cells that express differentiation markers, cells were washed once and resuspended in RPMI medium 1640 containing 3% fetal bovine serum. Phycoerythrin (PE)-conjugated CD11b, 5 Allophycocyanin (APC)-CD11c or control antibodies (BD Pharmingen, San Diego, Calif.) were added into cell suspension. After 30 minutes of incubation in the dark at 4° C., the cells were washed twice and resuspended in RPMI medium 1640 containing 7-amino actinomycin D (AAD) (for dead cell exclusion) and analyzed by FACScan (Becton Dickinson).

PML-RARα = target: T1, PML-RARα (Homo sapiens, UniProt P10276+P29590); assay: Western blot of PML-RARα and RARα in NB4 cells; format: cell-based; conditions: 3 days
T1 construct: PML portion (fusion partner, UniProt P29590); endogenous in cells; host or cells: NB4 cells
T1 sequence (P29590+P10276 with tags, fused parts or gaps): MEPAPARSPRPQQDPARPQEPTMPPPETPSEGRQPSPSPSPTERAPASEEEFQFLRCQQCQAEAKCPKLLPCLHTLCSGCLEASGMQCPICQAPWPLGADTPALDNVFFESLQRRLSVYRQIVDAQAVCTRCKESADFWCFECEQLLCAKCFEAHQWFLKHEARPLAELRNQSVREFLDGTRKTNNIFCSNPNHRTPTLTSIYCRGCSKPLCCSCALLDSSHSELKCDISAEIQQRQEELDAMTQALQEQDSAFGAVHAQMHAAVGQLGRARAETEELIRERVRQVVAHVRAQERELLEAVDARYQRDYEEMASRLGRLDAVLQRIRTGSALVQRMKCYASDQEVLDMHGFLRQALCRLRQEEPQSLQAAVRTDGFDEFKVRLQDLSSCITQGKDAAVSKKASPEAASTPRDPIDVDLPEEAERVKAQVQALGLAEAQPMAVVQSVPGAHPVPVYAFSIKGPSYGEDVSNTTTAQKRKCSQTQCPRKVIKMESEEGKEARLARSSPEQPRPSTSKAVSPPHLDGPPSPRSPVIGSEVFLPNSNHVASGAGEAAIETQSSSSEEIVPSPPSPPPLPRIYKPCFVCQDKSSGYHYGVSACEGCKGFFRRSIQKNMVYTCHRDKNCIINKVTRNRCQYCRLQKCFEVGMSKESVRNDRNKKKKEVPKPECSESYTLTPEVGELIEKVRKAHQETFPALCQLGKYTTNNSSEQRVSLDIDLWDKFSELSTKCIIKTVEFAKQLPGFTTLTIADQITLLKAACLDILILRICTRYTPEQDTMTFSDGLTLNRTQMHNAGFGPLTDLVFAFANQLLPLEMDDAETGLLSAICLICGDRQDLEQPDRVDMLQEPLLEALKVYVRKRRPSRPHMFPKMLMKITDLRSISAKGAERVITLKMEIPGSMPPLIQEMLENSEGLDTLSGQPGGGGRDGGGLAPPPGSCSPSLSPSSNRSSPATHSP
Method: (§3) Whole-cell lysates were prepared by washing the cells with PBS and resuspending them in 1 ml of lysis buffer (1× phosphate-buffered saline, 1 mM EDTA, 1.5 mg/ml of iodoacetamide, 100 μM sodium orthovanadate, 0.5% Triton X-100, 20 mM β-glycerolphosphate, 0.2 mM phenylmethylsulfonyl fluoride, and 1× complete protease inhibitor cocktail). After clarification by a 15-min centrifugation in a microcentrifuge at 4° C., the resulting supernatant was collected. 20-50 μg of protein extracts were separated on a 10% SDS-polyacrylamide gel and transferred to a nitrocellulose membrane. The membrane was blocked with 5% nonfat milk followed by incubation with antibodies. The immunocomplex was visualized by chemiluminescence.

RARE-TK-Luc reporter = RARE-TK-Luc reporter transient transfection in NB4 cells; format: cell-based; conditions: ATRA 1 μM, 19 h
Method: Electroporation was performed using a Gene Pulser (BioRad, Hercules, Calif.) apparatus at 300 V and 960 μF capacity. […] Cells were harvested 19 h after transfection/treatment for luciferase and β-galactosidase activities.

NB4-R4 cells = assay: CD11c/CD11b expression by flow cytometry in ATRA-resistant NB4-R4 cells; format: cell-based; conditions: ATRA treatment, 3 days
Method: as §1, §2

HL-60 cells = assay: CD11c expression by flow cytometry in HL-60 cells; format: cell-based; conditions: 48 h
Method: as §1, §2

C/EBPβ = assay: Western blot of phospho-C/EBPβ (Thr-235) and C/EBPβ in NB4 cells; format: cell-based
Method: as §3

ERK1/2 [2] = assay: Western blot of phospho-ERK1/2 in U-937 cells; format: cell-based; conditions: higher concentrations, 18 h, total ERK1/2 unaffected
Method: as §3

U-937 cells [3] = assay: CD11c expression by flow cytometry in U-937 cells; format: cell-based; conditions: lower concentrations, 3 days
Method: as §1, §2

H3 [4] = assay: Western blot of phospho-H3 (Ser-10) in NB4 cells; format: cell-based; conditions: for H3 phosphorylation (Ser-10): NB4 cells, 24 h
Method: as §3

ERK1/2 [5] = assay: Western blot of phospho-ERK1/2 in NB4 cells; format: cell-based; conditions: 24 h
Method: as §3

Kasumi-1 cells = assay: CD11c expression by flow cytometry in Kasumi-1 cells; format: cell-based; conditions: 3 days
Method: as §1, §2

[6] = plasma, humans; cited from earlier work
NB4 cells [7] = assay: Apoptosis by Annexin V binding (flow cytometry) in NB4 cells; format: cell-based
Method: as §1
(§4) To determine the percentage of cells that undergo apoptosis, after incubation with APC-CD11c antibody in the dark at 4° C., cells were washed twice with PBS and incubated at room temperature for 15 min with PE-conjugated Annexin-V (BD Pharmingen) and 7-AAD in binding buffer (10 mM HEPES, pH 7.4, 140 mM NaCI, 2.5 mM CaCl2) and analyzed by FACScan for CD11c expression and Annexin V binding. Apoptotic cells are those that stained positive for Annexin V and negative for 7-AAD.

[8] = in humans; cited from earlier work
U-937 cells [9] = assay: Annexin V binding in U-937 cells; format: cell-based; conditions: higher concentrations, 3 days
Method: as §1, §4

histones H3 and H4 = assay: Western blot of acetylated histones H3 and H4 in NB4 cells; format: cell-based; conditions: concentrations required for apoptosis, NB4 cells, 24 h
Method: as §3

H3 [10] = assay: Western blot of acetyl-H3 and phospho-H3 in U-937 cells; format: cell-based; conditions: higher concentrations, 18 h
Method: as §3

[11] = p38 inhibitor treatment of NB4 cells (data not shown)

Compound: COCCC(=O)O [3-methoxypropionic acid]
- NB4 differentiation (NB4 cells [1]; NB4 cells): potent inducers

Compound: CC1=C(/C=C/C(C)=C/C=C/C(C)=C/C(=O)O)C(C)(C)CCC1 [ATRA, all-trans-Retinoic acid]
- expression level of PML-RARα fusion protein (PML-RARα): induced the degradation
- transcription of RARE-containing reporter gene (RARE-TK-Luc) (RARE-TK-Luc reporter): can activate transcription
- effect on percentage of cells expressing CD11c compared with 1 nM MAA (NB4 cells [1]; 0.1 nM ATRA, NB4 cells, 24 h): same order of magnitude
- percentage of cells expressing CD11b (NB4 cells [1]; ATRA 10 nM alone, NB4 cells, 24 h, from 26%): 51%
- NB4 cell differentiation (CD11c) (NB4 cells [1]; ATRA 1 μM): can induce NB4 cell differentiation
- sensitivity of NB4-R4 cells versus NB4 parental line (CD11c, CD11b) (NB4-R4 cells): less sensitive

Compound: CCCC(=O)O [BA, butyric acid]
- differentiation as evidenced by expression of CD11c (HL-60 cells): induce differentiation
- level of phosphorylated C/EBPβ at Thr-235 (C/EBPβ; 17 h): increases phosphorylation
- phosphorylation of C/EBPβ at Thr-235 (C/EBPβ; lower concentrations, 24 h): maximal phosphorylation
- activity of ERK1/2 (phospho-ERK1/2) (ERK1/2 [2]): downregulate
- expression of the differentiation marker CD11c (U-937 cells [3]): increasing expression
- H3 phosphorylation (Ser-10) (H3 [4]; higher concentrations): dramatically increased
- H3 phosphorylation (Ser-10) (H3 [4]; lower concentrations): without effect
- levels of phosphorylated ERK (ERK1/2 [5]; higher concentrations (no differentiating effects), total ERK not decreased): dramatically decreased
- constitutive levels of phosphorylated ERK (ERK1/2 [5]; lower concentrations): did not change
- percentage of cells expressing CD11c (Kasumi-1 cells): increased
- half-life in vivo t1/2 [6]: 6 min
- differentiation (CD11c) (NB4 cells [1]; BA 0.5 mM and 1 mM, NB4 cells, 24 h): differentiation was observed
- NB4 cell differentiation (CD11c) (NB4 cells [1]; BA 1 mM): can induce NB4 cell differentiation
- differentiation (CD11c) (NB4 cells [1]; BA 5 mM (or higher), NB4 cells, 24 h): failed to differentiate
- NB4 differentiation (NB4 cells [1]; NB4 cells): potent inducers
- apoptosis (Annexin V) (NB4 cells [7]; BA 1 mM, NB4 cells, 21 h): effectively induces apoptosis
- tolerability [8]: well-tolerated
- apoptosis (Annexin V) (U-937 cells [9]): inducing apoptosis
- H3 and H4 acetylation (histones H3 and H4): robust acetylation
- H3 acetylation and phosphorylation (H3 [10]): increase

Compound: O=C(CCCCCCC(=O)Nc1ccccc1)NO [SAHA, suberoylanilide hydroxamic acid]
- differentiation (NB4 cells [1]; SAHA at lower concentrations, NB4 cells (data not shown)): facilitated differentiation
- apoptosis (NB4 cells [7]; SAHA at higher concentrations, NB4 cells (data not shown)): effectively induced apoptosis

Compound: C[S+]([O-])c1ccc(-c2nc(-c3ccncc3)c(-c3ccc(F)cc3)[nH]2)cc1 (centres unmarked) [SB203580]
- effect on H3 phosphorylation at Ser-10 (H3 [4]; [11]): little effect
- effect on apoptosis (NB4 cells [7]; [11]): little effect

Compound: N#CC(=C(/N)Sc1ccccc1N)/C(C#N)=C(\N)Sc1ccccc1N [U0126]
- MAA- or BA-induced phosphorylation of C/EBPβ at Thr-235 (C/EBPβ; U0126 5 μM, 17 h, absolute protein level unchanged): blocks
- ATRA-induced differentiation (NB4 cells [1]; U0126 pretreatment 2 h, then ATRA 1 μM 21 h, NB4 cells): less dramatic effect
- MAA and BA-dependent differentiation as assessed by CD11c expression (NB4 cells [1]; U0126 pretreatment 2 h, then MAA 5 mM or BA 1 mM 21 h, NB4 cells): dramatically reduced
- number of BA-treated cells undergoing apoptosis (NB4 cells [7]): significantly increased

Compound: CCCC(CCC)C(=O)O [VPA, valproic acid]
- percentage of NB4 cells expressing CD11c (NB4 cells [1]; NB4 cells, FIG. 9): did not significantly increase
- apoptosis (NB4 cells [7]; as concentrations increase, NB4 cells, FIG. 9): potently induces apoptosis

Compound: CCOCC(=O)O [ethoxyacetic acid]
- NB4 differentiation (NB4 cells [1]; NB4 cells): potent inducers

Compound: CCC(=O)O [propionic acid]
- NB4 differentiation (NB4 cells [1]; NB4 cells): potent inducers

Compound: [Na+].[Na+].[Na+].[O]=[V]([O-])([O-])[O-] [sodium orthovanadate]
- apoptosis of NB4 cells in response to HDACI treatment (NB4 cells [7]; tyrosine phosphatase inhibitor treatment (data not shown)): did not inhibit

Compound: Phenylbutyrate
- half-life in vivo t1/2 [6]: 60 min
- tolerability [8]: well-tolerated

Compound: arsenic trioxide [ATO]
- expression level of PML-RARα fusion protein (PML-RARα): induced the degradation
- apoptosis (Annexin V) (NB4 cells [7]; ATO 0.1 μM, 0.5 μM alone, NB4 cells, 3 days): does not induce significant amount of apoptosis
